Experimental data published in US5945436A, “Pyridylmethyl nitriles, amides and thioamides useful as fungicides” (Uniroyal Chemical Company, Inc., priority 1997, dated 1999).

How the values were obtained:
[1] = test system: Botrytis cinerea; test: Fungal growth inhibition, treated disc on agar (BOT CIN); assay type: cell-based; settings: disc dipped in 500 mg/l, 29° C.; for inhibition at 500 µg/mL: Botrytis cinerea, read-out: Percent Growth Inhibition, BOT CIN
[2] = test system: Erysiphe polygoni; test: Powdery mildew on pinto bean, foliar application (ERY POL); assay type: in vivo; settings: similar procedure as barley (1,000 mg/l); for pest or weed control at 1000 µg/mL: Erysiphe polygoni, read-out: Percent Reduction of Disease, ERY POL
Method in brief: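 Pinto bean plants sprayed with compound emulsion (acetone or inert solvent, TWEEN 20, water) at 1,000 mg/l, or left unsprayed, dried, then inoculated with Erysiphe polygoni spores in a 21° C greenhouse. Disease scored; percent control computed against untreated controls.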

[3] = test system: Erysiphe cichoracearum; test: Powdery mildew of cucumber, systemic root uptake (CMS); assay type: in vivo; settings: 45 ml of 250 mg/l, 8 days after inoculation
Method in brief: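 Pot soil of barley (BMS) and cucumber (CMS) plants was drenched with 45 ml of a 250 mg/l acetone/Tween 20 aqueous emulsion, with untreated plants as controls. Disease was scored on a rating scale that included intermediate grades.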

[4] = test system: Cercosporidium personatum; test: Fungal germination and growth, treated disc on agar, scored (CER PER); assay type: cell-based; design: key: 100: Complete inhibition of germination and growth.; 80: Nearly complete inhibition but some growth.; 50: Partial inhibition of growth or, early complete inhibition but later growth begins.; 20: Some inhibition of growth, but not significant.; 0: No inhibition of growth; settings: disc dipped in 500 mg/l, 29° C., numerical score 0-100, spore suspension
Text: Filter paper discs, each 11 mm. in diameter, were dipped in each of the test solutions. The discs were allowed to air dry to drive off the acetone solvent. A number of untreated discs were used as controls. The treated and untreated discs were then placed on agar plates and one of the following fungus species: Septoria nodorum (SEP NOD), Botrytis cinerea (BOT CIN), Fusarium oxysporum (FUS OXY), Pythium ultimum ([…]), Rhizoctonia solani (RHI SOL), Colletotrichum gossypii (COL GOS), and Scierotinia minor (SCL MIN), was added to the center of each disc in the form of a culture plug with the fungus mat in contact with the paper of the test disc. Cercosporidium personatum (CER PER), was added to discs as a spore suspension (20,000 spores/ml) to the disc (two drops of spore suspension per disc), rather than a mycelial culture plug. The plates were then incubated at 29° C. in an oven. In the case of the Cercosporidium personatum (CER PER) fungi, scoring was done on a numerical basis as follows: 100=Complete inhibition of germination and growth. 80=Nearly complete inhibition but some growth. 50=Partial inhibition of growth or, early complete inhibition but later growth begins. 20=Some inhibition of growth, but not significant. 0=No inhibition of growth. The results of all the above tests appear in Table III below under the headings "SEP NOD," "BOT CIN," "FUS OXY," "[…]" "COL GOS" and "CER PER".

[5] = test system: Septoria nodorum; test: Fungal growth inhibition, treated disc on agar (SEP NOD); assay type: cell-based; settings: disc dipped in 500 mg/l, 29° C.; for inhibition at 500 µg/mL: Parastagonospora nodorum, read-out: Percent Growth Inhibition, SEP NOD
Procedure: (§1) The treated and untreated discs were then placed on agar plates and one of the following fungus species: Septoria nodorum (SEP NOD), Botrytis cinerea (BOT CIN), Fusarium oxysporum (FUS OXY), Pythium ultimum (PYT ULT), Rhizoctonia solani (RHI SOL), Colletotrichum gossypii (COL GOS), and Scierotinia minor (SCL MIN), was added to the center of each disc in the form of a culture plug with the fungus mat in contact with the paper of the test disc. Cercosporidium personatum (CER PER), was added to discs as a spore suspension (20,000 spores/ml) to the disc (two drops of spore suspension per disc), rather than a mycelial culture plug. The plates were then incubated at 29° C. in an oven.
(§2) With the exception of the discs containing Cercosporidium personatum, the discs were evaluated by first measuring the radius from the center of the fungus colony on the treated discs and on the untreated discs. Percent growth inhibition of each of the compounds tested was determined as a function of the difference between the radius of the fungus colony on the treated disc versus the radius of the fungus colony on the untreated disc.

[6] = test system: Colletotrichum gossypii; test: Fungal growth inhibition, treated disc on agar (COL GOS); assay type: cell-based; settings: disc dipped in 500 mg/l, 29° C.; for inhibition at 500 µg/mL: Colletotrichum gossypii, read-out: Percent Growth Inhibition, COL GOS
Procedure: as §1, §2

| SMILES | Percent Growth Inhibition, BOT CIN [1] | pest or weed control at 1000 µg/mL [2] | Percent Reduction of Disease, CMS [3] | CER PER inhibition score [4] | Percent Growth Inhibition, SEP NOD [5] | Percent Growth Inhibition, COL GOS [6] | inhibition at 500 µg/mL [1] | inhibition at 500 µg/mL [5] | inhibition at 500 µg/mL [6] | Percent Reduction of Disease, ERY POL [2] |
| --- | --- | --- | --- | --- | --- | --- | --- | --- | --- | --- |
| CC(C)CCC(C#N)(CCc1ccc(F)cc1)c1cccnc1 (stereo not drawn) [Compound 49] | 100% | 90% | 0% | 0 | 100% | 100% |  |  |  |  |
| COCC(C#N)(CCc1ccc(OC)cc1)c1cccnc1 (stereo not drawn) [Compound 50] |  | 100% | 0% | 0 |  |  | 0% | 100% | 100% |  |
| COCC(C#N)(CCc1ccc(F)cc1)c1cccnc1 (stereo not drawn) [Compound 51] |  | 85% | 0% | 100 |  |  | 100% | 100% | 100% |  |
| N#CC(CCc1ccc(F)cc1)(CC(F)(F)F)c1cccnc1 (stereo not drawn) [Compound 52] |  | 100% | 85% | 100 |  |  | 100% | 100% | 100% |  |
| N#CC(CCF)(CCc1ccc(F)cc1)c1cccnc1 (stereo not drawn) [Compound 53] |  | 90% | 0% | 0 |  |  | 100% | 100% | 100% |  |
| CCCCOc1ccc(CCC(C#N)(CCCC)c2cccnc2)cc1 (stereo not drawn) [Compound 54] |  | 90% | 0% | 0 |  |  | 100% | 100% | 100% |  |
| CC(C)CCC(C#N)(CCc1ccc(F)cc1)c1cccnc1 (stereo not drawn) [Compound 55] | 40% |  | 0% | 0 | 10% | 30% |  |  |  | 85% |
| C=CCC(C#N)(CCc1ccc(OCCCC)cc1)c1cccnc1 (stereo not drawn) [Compound 56] |  | 90% | 0% | 0 |  |  | 100% | 40% | 35% |  |
| CCCCOc1ccc(CCC(C#N)(CCC)c2cccnc2)cc1 (stereo not drawn) [Compound 57] |  | 90% | 0% | 0 |  |  | 30% | 40% | 15% |  |
| CCCCOc1ccc(CCC(C#N)(CC(C)C)c2cccnc2)cc1 (stereo not drawn) [Compound 58] |  | 85% | 0% | 0 |  |  | 10% | 70% | 15% |  |
| CC=CCC(C#N)(CCc1ccc(F)cc1)c1cccnc1 (stereo not drawn) [Compound 59] |  | 90% | 0% | 0 |  |  | 100% | 100% | 100% |  |
| CCCCCC(C#N)(CCc1ccc(F)cc1)c1cccnc1 (stereo not drawn) [Compound 60] |  | 90% | 0% | 0 |  |  | 100% | 100% | 30% |  |
| C#CCC(CCc1ccccc1)(C(N)=S)c1cccnc1 (stereo not drawn) [Compound 61, α-(2-phenylethyl)-α-(2-propynyl)-3-pyridinethanethioamide] |  | 100% | 40% | 100 |  |  | 100% | 20% | 100% |  |
| CCCCCC(CCc1ccc(F)cc1)(C(N)=O)c1cccnc1 (stereo not drawn) [Compound 62] |  | 100% | 20% | 0 |  |  | 0% | 0% | 25% |  |
| CCCCC(C#N)(CCCc1ccccc1OC)c1cccnc1 (stereo not drawn) [Compound 63] |  | 100% | 0% | 0 |  |  | 40% | 100% | 25% |  |
| N#CC(CCCF)(CCc1ccc(F)cc1)c1cccnc1 (stereo not drawn) [Compound 64] |  | 100% | 0% | 0 |  |  | 100% | 100% | 55% |  |
| C=C(Cl)CC(C#N)(CCc1ccc(F)cc1)c1cccnc1 (stereo not drawn) [Compound 65] |  | 100% | 0% | 0 |  |  | 100% | 100% | 100% |  |
| N#CC(CCCF)(CCc1ccccc1F)c1cccnc1 (stereo not drawn) [Compound 66] |  | 100% | 40% | 0 |  |  | 100% | 100% | 100% |  |
| C=CCC(C#N)(CCc1ccccc1F)c1cccnc1 (stereo not drawn) [Compound 67] |  | 100% | 20% | 100 |  |  | 100% | 100% | 100% |  |
| CCCCC(C#N)(CCc1ccc(OCCF)cc1)c1cccnc1 (stereo not drawn) [Compound 68] |  | 100% | 0% | 100 |  |  | 100% | 100% | 100% |  |
| CCCCC(C#N)(CCc1ccc(OCCC)cc1)c1cccnc1 (stereo not drawn) [Compound 69] | 70% |  | 20% | 0 | 100% | 100% |  |  |  | 100% |
| C=CCC(C#N)(CCCc1ccccc1OC)c1cccnc1 (stereo not drawn) [Compound 70] |  | 92% | 0% | 100 |  |  | 100% | 100% | 100% |  |
| CCCC(C#N)(CCCc1ccccc1OC)c1cccnc1 (stereo not drawn) [Compound 71] |  | 100% | 80% | 100 |  |  | 100% | 100% | 100% |  |
| CCCC(C#N)(CCc1ccccc1C(F)(F)F)c1cccnc1 (stereo not drawn) [Compound 72] |  | 92% | 80% | 0 |  |  | 100% | 100% | 100% |  |
| CCCCC(C#N)(CCc1ccccc1C(F)(F)F)c1cccnc1 (stereo not drawn) [Compound 73] |  | 100% | 0% | 0 |  |  | 100% | 70% | 85% |  |
| CCCCC(C#N)(CCc1ccccc1F)c1cccnc1 (stereo not drawn) [Compound 74] |  | 100% | 80% | 0 |  |  | 100% | 100% | 100% |  |
| CCCC(C#N)(CCc1ccccc1F)c1cccnc1 (stereo not drawn) [Compound 75] |  | 100% | 0% | 0 |  |  | 100% | 100% | 100% |  |
| CCCCC(C#N)(CCCc1ccc(OC)cc1)c1cccnc1 (stereo not drawn) [Compound 76] |  | 100% | 0% | 100 |  |  | 100% | 100% | 100% |  |
